Assay results: article PMC8179515 (Chemical Science, 2021)

How the values were obtained:
Aβ1-42 oligomers (Aβo) = Aβ1-42 oligomers (Aβo) (Homo sapiens, UniProt P05067); format: binding
albumin = conditions: cited from earlier work
monomeric amyloid-β = conditions: cited from earlier work

Sequence of Aβ1-42 oligomers (Aβo) (P05067 672-713): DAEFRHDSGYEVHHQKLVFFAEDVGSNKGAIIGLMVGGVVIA

## C=C(c1ccc(C(=O)O)cc1)c1cc2c(cc1C)C(C)(C)CCC2(C)C [Bexarotene]
Aβ1-42 oligomers (Aβo)
  Highest% STD: 14.60%

## CC(C(=O)O)c1ccc(-c2ccccc2)c(F)c1 (stereo not drawn) [flurbiprofen]
albumin
  bound to albumin: > 99%

## solanezumab
Monomeric amyloid-β
  affinity for central epitope KLVFFAED: picomolar affinity
